Reference: US12391664B2, “GluN2C/D subunit selective antagonists of the N-methyl-D-aspartate receptor” (Emory University, priority 2018, dated 2025)
Where two headings read alike, the source gives them in different places. Marks after values point to notes of the source that are not given here.

Experiments:
Assay type in all cases: cell-based
[1] = target: T1, recombinant rat GluN1/GluN2C (Rattus norvegicus, UniProt Q00961); assay: Two-electrode voltage-clamp recordings in Xenopus laevis oocytes, GluN2C; conditions: 3 μM compound with 100 μM glutamate and 30 μM glycine, control set as 1
T1 construct: expressed in transfected cells; host or cells: Xenopus laevis oocytes injected with cRNA (GluN1:GluN2 ratio 1:2)
T1 sequence (Q00961 20-1237, other chains not shown): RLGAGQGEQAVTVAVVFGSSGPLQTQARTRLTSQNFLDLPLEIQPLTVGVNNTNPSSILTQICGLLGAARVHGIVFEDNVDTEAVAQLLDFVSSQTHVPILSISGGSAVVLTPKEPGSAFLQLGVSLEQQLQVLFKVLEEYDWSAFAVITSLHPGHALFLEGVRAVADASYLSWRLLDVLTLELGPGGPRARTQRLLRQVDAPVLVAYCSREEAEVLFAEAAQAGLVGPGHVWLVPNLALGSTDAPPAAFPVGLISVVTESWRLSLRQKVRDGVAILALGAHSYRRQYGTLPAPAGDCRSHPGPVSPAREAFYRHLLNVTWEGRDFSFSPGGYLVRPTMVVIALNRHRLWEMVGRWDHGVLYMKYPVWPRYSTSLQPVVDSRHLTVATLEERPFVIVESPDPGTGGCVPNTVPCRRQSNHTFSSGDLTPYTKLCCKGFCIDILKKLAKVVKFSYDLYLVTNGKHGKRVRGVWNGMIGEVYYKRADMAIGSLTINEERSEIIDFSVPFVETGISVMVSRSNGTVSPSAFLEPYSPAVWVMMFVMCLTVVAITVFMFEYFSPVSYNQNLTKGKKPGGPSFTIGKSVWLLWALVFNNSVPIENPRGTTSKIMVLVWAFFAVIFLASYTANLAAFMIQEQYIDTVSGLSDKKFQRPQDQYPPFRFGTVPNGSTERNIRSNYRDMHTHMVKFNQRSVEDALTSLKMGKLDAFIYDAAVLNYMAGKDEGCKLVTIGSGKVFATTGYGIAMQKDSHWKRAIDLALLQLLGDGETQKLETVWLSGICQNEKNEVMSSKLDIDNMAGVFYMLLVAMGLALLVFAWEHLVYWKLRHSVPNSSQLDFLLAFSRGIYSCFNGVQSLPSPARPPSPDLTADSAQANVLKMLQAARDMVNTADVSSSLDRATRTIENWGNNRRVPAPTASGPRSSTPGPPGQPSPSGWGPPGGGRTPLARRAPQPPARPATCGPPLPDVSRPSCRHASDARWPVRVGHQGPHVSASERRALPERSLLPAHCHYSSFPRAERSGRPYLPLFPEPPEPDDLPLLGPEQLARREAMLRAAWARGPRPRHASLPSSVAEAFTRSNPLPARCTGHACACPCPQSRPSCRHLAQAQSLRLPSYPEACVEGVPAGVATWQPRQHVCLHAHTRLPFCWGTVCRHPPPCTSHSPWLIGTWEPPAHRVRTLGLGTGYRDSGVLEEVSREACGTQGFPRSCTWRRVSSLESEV
Experimental: (§1) All target compounds were evaluated for activity by the Traynelis laboratory at Emory University using two-electrode voltage-clamp recordings performed in Xenopus laevis oocytes expressing recombinant GluN2A-D subunits (Table 1). […] Two ester compounds 997-65 and 997-66 also performed no inhibition at GluN2A to GluN2D receptors. […] Consequently, for the compounds that Acker et al. already published, it was necessary to increase the concentration to 100 μM when collecting data for a concentration effect curve. […] Therefore, under this condition, we can only conclude that compound 997-67 remained potent at GluN2C/D-containing receptors, but its selectivity over GluN2A- and GluN2B-containing receptors could not be compared to 997-57. […] Finally, replacing the carboxylic acid to the bio-isostere amide yielded compounds 997-96 and 997-115, which dropped the potency 2- to 4-fold in comparison to their corresponding acids 997-74 and 997-114.
(§2) Two-electrode voltage-clamp recordings were performed in Xenopus laevis oocytes that were injected with mRNA to express recombinant rat GluN1/GluN2A, GluN1/GluN2B, GluN1/GluN2C, and GluN1/GluN2D. The recordings using unfertilized oocytes from Xenopus laevis were permitted by Emory University Institutional Animal Care and Use Committee (IACUC). An automatic injector (Nanoject II, Drummond Scientific) was used for cRNA injection using the pipettes filled with mineral oil. The cRNA that transcribed in vitro via the mMessage Machine kit (Ambion) was diluted with nuclease-free water, and then injected at GluN1/GluN2 with a ratio of 1:2. The oocytes were stored in Barth's solution that contained 88 mM NaCl, 5.0 mM Tris-HCl, 2.4 mM NaHCO3, 1.0 mM KCl, 0.84 mM MgSO4, 0.41 mM CaCl2, 0.33 mM Ca(NO3)2, 0.1 mg/ml gentamycin sulfate, 1.0 U/ml penicillin, and 1 μg/ml streptomycin at a pH of 7.4 and temperatures of 15-17° C. for two to five days before the two-electrode voltage-clamp recordings. When recording, the oocytes were placed in a perfusion chamber and continually washed with the recording solution comprised of 90 mM NaCl, 1.0 mM KCl, 0.50 mM BaCl2, 0.005 mM EDTA, and 10 mM HEPES at a pH of 7.4 and a temperature of 23° C. Glass electrodes with a tip resistance of 0.5 to 2.5 MΩ were obtained from thin-walled glass capillary tubes. Voltage electrodes and current electrodes were filled with 0.3 M and 3.0 M KCl, respectively. The recordings were executed with the oocytes membrane potential holding at −40 m V by an OC-725 amplifier (Warner Instrument Co). All compounds were dissolved in dimethyl sulfoxide (DMSO) as 20 mM stock solutions and future diluted to reach the desired concentration (0.05-0.5% (vol/vol) DMSO) in recording solution comprised of 30 μM glycine and 100 μM glutamate. Each compound was recorded 3-7 times in the least 4 oocytes from at least 2 different Xenopus laevis.
(§3) To evaluate the inhibition of compounds, the concentration-response curve was fitted with the average two-electrode voltage-clamp recording results with the equation
(§4) [formula] • where IC50 is the concentration of compounds that inhibit half maximal of the current response and N is the Hill slope.

[2] = target: T2, recombinant rat GluN1/GluN2C (Rattus norvegicus, UniProt P35439+Q00961); assay: as above
T2 construct: expressed in transfected cells; host or cells: Xenopus laevis oocytes injected with cRNA (GluN1:GluN2 ratio 1:2)
T2 sequence (Q00961 20-1237, other chains not shown): as above
Experimental: as §1, §2, §3, §4

[3] = target: T3, recombinant rat GluN1/GluN2B (Rattus norvegicus, UniProt Q00960); assay: Two-electrode voltage-clamp recordings in Xenopus laevis oocytes, GluN2B; conditions: 3 μM compound with 100 μM glutamate and 30 μM glycine, control set as 1
T3 construct: expressed in transfected cells; host or cells: Xenopus laevis oocytes injected with cRNA (GluN1:GluN2 ratio 1:2)
Experimental: as §1, §2, §3, §4

[4] = target: T4, recombinant rat GluN1/GluN2B (Rattus norvegicus, UniProt P35439+Q00960); assay: as above; conditions: oocytes, 100 μM glutamate and 30 μM glycine
T4 construct: expressed in transfected cells; host or cells: Xenopus laevis oocytes injected with cRNA (GluN1:GluN2 ratio 1:2)
Experimental: as §1, §2, §3, §4

[5] = target: T5, recombinant rat GluN1/GluN2D (Rattus norvegicus, UniProt P35439+Q62645); assay: Two-electrode voltage-clamp recordings in Xenopus laevis oocytes, GluN2D
T5 construct: expressed in transfected cells; host or cells: Xenopus laevis oocytes injected with cRNA (GluN1:GluN2 ratio 1:2)
T5 sequence (Q62645 28-1323, other chains not shown): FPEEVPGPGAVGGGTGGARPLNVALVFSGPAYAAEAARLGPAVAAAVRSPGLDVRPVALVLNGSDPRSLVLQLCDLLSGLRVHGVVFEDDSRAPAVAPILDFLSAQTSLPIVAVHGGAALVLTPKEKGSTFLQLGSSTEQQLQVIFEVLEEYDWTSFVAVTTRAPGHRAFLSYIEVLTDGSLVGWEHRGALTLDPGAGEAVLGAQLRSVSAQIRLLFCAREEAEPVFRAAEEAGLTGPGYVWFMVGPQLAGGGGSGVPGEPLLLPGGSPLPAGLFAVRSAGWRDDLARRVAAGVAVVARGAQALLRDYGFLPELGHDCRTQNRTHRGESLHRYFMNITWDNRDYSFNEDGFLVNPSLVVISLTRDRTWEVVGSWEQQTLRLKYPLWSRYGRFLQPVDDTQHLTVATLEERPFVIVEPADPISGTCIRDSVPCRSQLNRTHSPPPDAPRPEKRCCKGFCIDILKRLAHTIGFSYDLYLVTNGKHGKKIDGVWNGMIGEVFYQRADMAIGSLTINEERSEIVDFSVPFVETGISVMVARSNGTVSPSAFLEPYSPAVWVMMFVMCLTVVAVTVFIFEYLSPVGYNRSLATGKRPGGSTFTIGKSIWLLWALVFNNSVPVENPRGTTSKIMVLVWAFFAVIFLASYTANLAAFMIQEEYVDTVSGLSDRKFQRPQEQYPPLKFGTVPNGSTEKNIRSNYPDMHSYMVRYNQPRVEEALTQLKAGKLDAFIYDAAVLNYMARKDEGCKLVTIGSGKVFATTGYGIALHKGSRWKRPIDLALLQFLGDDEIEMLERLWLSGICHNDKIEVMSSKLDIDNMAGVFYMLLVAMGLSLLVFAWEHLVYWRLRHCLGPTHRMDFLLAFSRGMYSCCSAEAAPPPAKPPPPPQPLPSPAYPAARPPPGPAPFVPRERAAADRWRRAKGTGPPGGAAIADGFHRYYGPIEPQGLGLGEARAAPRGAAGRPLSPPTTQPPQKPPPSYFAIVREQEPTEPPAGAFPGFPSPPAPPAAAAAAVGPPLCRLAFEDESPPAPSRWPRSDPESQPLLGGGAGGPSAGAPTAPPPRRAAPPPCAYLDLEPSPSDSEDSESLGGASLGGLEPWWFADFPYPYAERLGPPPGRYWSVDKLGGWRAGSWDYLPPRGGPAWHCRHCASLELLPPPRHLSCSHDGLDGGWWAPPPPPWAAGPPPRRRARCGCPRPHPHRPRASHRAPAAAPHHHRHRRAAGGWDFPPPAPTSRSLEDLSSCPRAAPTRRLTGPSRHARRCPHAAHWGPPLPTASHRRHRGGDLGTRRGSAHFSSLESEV
Experimental: as §1, §2, §3, §4

[6] = target: T6, recombinant rat GluN1/GluN2D (Rattus norvegicus, UniProt Q62645); assay: as above; conditions: for 2A IC50 / 2D IC50 / 2B IC50 / 2D IC50: ratio of IC50 values
T6 construct: expressed in transfected cells; host or cells: Xenopus laevis oocytes injected with cRNA (GluN1:GluN2 ratio 1:2)
T6 sequence (Q62645 28-1323, other chains not shown): as above
Experimental: as §1, §2, §3, §4

[7] = target: T7, recombinant rat GluN1/GluN2A (Rattus norvegicus, UniProt Q00959); assay: Two-electrode voltage-clamp recordings in Xenopus laevis oocytes, GluN2A; conditions: 3 μM compound with 100 μM glutamate and 30 μM glycine, control set as 1
T7 construct: expressed in transfected cells; host or cells: Xenopus laevis oocytes injected with cRNA (GluN1:GluN2 ratio 1:2)
Experimental: as §1, §2, §3, §4

[8] = target: T8, recombinant rat GluN1/GluN2A (Rattus norvegicus, UniProt P35439+Q00959); assay: as above; conditions: oocytes, 100 μM glutamate and 30 μM glycine
T8 construct: expressed in transfected cells; host or cells: Xenopus laevis oocytes injected with cRNA (GluN1:GluN2 ratio 1:2)
T8 sequence (Q00959 23-1464, other chains not shown): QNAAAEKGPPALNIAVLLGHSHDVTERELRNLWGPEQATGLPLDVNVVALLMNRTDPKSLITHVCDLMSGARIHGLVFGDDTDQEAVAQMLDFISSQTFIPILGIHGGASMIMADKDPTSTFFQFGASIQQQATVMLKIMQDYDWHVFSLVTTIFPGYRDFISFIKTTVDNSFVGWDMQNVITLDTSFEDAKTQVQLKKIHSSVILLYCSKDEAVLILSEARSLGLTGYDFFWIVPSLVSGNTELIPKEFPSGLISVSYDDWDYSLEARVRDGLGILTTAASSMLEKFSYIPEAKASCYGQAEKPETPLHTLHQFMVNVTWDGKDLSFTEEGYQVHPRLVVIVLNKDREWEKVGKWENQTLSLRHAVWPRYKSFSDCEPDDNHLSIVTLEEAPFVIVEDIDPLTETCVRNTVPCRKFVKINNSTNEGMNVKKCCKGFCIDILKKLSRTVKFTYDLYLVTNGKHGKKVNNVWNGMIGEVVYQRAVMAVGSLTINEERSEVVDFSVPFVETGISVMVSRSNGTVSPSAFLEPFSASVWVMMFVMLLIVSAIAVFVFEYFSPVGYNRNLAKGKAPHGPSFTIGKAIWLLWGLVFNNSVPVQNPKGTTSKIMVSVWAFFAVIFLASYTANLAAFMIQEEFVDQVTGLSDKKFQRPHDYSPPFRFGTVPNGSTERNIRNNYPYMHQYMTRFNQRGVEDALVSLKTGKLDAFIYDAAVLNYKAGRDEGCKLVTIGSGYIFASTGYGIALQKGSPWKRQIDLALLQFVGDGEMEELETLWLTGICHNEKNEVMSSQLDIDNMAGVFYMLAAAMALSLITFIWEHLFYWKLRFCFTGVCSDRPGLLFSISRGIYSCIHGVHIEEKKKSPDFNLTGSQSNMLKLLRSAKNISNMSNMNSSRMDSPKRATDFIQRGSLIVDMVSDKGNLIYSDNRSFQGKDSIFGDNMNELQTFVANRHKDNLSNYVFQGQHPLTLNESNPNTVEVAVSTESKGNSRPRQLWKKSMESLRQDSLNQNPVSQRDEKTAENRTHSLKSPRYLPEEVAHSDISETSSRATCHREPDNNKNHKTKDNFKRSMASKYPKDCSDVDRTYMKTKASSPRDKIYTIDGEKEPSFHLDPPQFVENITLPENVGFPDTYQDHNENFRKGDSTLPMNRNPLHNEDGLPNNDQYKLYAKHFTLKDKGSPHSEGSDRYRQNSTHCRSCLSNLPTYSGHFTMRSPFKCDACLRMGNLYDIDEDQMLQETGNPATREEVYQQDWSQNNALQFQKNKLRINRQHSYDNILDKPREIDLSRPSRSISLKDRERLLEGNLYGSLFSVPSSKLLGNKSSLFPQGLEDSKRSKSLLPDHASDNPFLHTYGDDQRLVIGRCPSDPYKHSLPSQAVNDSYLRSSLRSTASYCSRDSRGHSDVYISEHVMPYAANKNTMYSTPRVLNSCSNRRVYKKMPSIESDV
Experimental: as §1, §2, §3, §4

[9] = mean IC50 with bottom and top 95% confidence interval, read-out: Avg. GluN2C IC50 (95% CI)
[10] = oocytes, 100 μM glutamate and 30 μM glycine, read-out: GluN2C IC50
[11] = mean IC50 with bottom and top 95% confidence interval, read-out: Avg. GluN2D IC50 (95% CI)
[12] = oocytes, 100 μM glutamate and 30 μM glycine, read-out: GluN2D IC50
[13] = read-out: IC50 at GluN2D-containing receptors

SMILES | IC50 [2, 10] [µM] | IC50 [4] [µM] | IC50 [5, 12] [µM] | IC50 [8] [µM] | 2B IC50 / 2D IC50 [6] | further results
Cc1ccc2[nH]c(=O)c(C3=NN(C(=O)C(F)(F)CC(=O)O)C(c4ccc(Cl)cc4)C3)c(-c3ccc(Cl)cc3)c2c1 (single isomer, unassigned; (+)) [(+)-997-90] | 2.1 | 1.8 | < 1 | 4.1 | – | I3 μM/Icontrol (mean ± SEM, %) GluN2C ([1]; listed as (+)-90): 36 ± 3.0%; IC50 [2, 9]: 2.1 µM; I3 μM/Icontrol (mean ± SEM, %) GluN2B ([3]; listed as (+)-90): 53 ± 3.6%; IC50 [5, 11]: 0.66 µM; I/Icontrol (mean ± SEM, %) GluN2D, data with ** ([6]; 1 μM compound with 100 μM glutamate and 30 μM glycine, control set as 1): 31 ± 9.8** %; I3 μM/Icontrol (mean ± SEM, %) GluN2A ([7]; listed as (+)-90): 72 ± 2.9%
O=C(O)CCC(=O)N1N=C(c2c(-c3ccc(Cl)s3)c3ccccc3[nH]c2=O)CC1c1ccc(Cl)cc1 (stereo not shown) [997-108, 4-(5-(4-chlorophenyl)-3-(4-(5-chlorothiophen-2-yl)-2-oxo-1,2-dihydroquinolin-3-yl)-4,5-dihydro-1H-pyrazol-1-yl)-4-oxobutanoic acid] | 0.67 | 23 | 0.4 | 13 | – | –
O=C(O)CC(F)(F)C(=O)N1N=C(c2c(-c3ccc(Cl)s3)c3ccccc3[nH]c2=O)CC1c1ccc(Cl)cc1 (stereo not shown) [997-109, 4-(5-(4-chlorophenyl)-3-(4-(5-chlorothiophen-2-yl)-2-oxo-1,2-dihydroquinolin-3-yl)-4,5-dihydro-1H-pyrazol-1-yl)-3,3-difluoro-4-oxobutanoic acid] | 0.28 | 4 | – | 2.6 | – | IC50 [5, 13]: 0.1 µM
O=C(O)CCC(=O)N1N=C(c2c(-c3ccc(Cl)cc3)c3ccccc3[nH]c2=O)CC1c1ccc(Cl)s1 (stereo not shown) [997-111, 4-(3-(4-(4-chlorophenyl)-2-oxo-1,2-dihydroquinolin-3-yl)-5-(5-chlorothiophen-2-yl)-4,5-dihydro-1H-pyrazol-1-yl)-4-oxobutanoic acid] | 1.3 | 34 | 0.8 | 21 | 43 | –
O=C(O)CC(F)(F)C(=O)N1N=C(c2c(-c3ccc(Cl)cc3)c3ccccc3[nH]c2=O)CC1c1ccc(C(F)(F)F)cc1 (stereo not shown) [997-113, 4-(3-(4-(4-chlorophenyl)-2-oxo-1,2-dihydroquinolin-3-yl)-5-(4-(trifluoromethyl)phenyl)-4,5-dihydro-1H-pyrazol-1-yl)-3,3-difluoro-4-oxobutanoic acid] | 0.17 | 2.9 | 0.08 | 2.3 | 36 | –
O=C(O)CC(F)(F)C(=O)N1N=C(c2ccccc2-c2ccc(Cl)cc2)CC1c1ccc(OC(F)(F)F)cc1 (stereo not shown) [997-117, 4-(3-(4′-chloro-[1,1′-biphenyl]-2-yl)-5-(4-(trifluoromethoxy)phenyl)-4,5-dihydro-1H-pyrazol-1-yl)-3,3-difluoro-4-oxobutanoic acid] | 3.44 | 8.79 | 2.87 | 17.2 | 3 | –
O=C(O)CC(F)(F)C(=O)N1N=C(c2ccccc2-c2ccc(Cl)cc2)CC1c1ccc(Cl)s1 (stereo not shown) [997-118, 4-(3-(4′-chloro-[1,1′-biphenyl]-2-yl)-5-(5-chlorothiophen-2-yl)-4,5-dihydro-1H-pyrazol-1-yl)-3,3-difluoro-4-oxobutanoic acid] | 3.69 | 12 | 3.74 | 9.01 | 3 | –
O=C(O)CC(F)(F)C(=O)N1N=C(c2ccccc2-c2ccc(F)c(Cl)c2)CC1c1ccc(Cl)cc1 (stereo not shown) [997-120, 4-(3-(3′-chloro-4′-fluoro-[1,1′-biphenyl]-2-yl)-5-(4-chlorophenyl)-4,5-dihydro-1H-pyrazol-1-yl)-3,3-difluoro-4-oxobutanoic acid] | 5.23 | 8.8 | 3.36 | 11 | – | –

The next lines start with results.

IC50 [2, 10] [µM] | IC50 [4] [µM] | IC50 [5, 12] [µM] | IC50 [8] [µM] | 2B IC50 / 2D IC50 [6] | SMILES | further results
0.2 | 1.9 | 0.13 | 1.9 | – | Cc1ccc2[nH]c(=O)c(C3=NN(C(=O)C(F)(F)CC(=O)O)C(c4ccc(Cl)cc4)C3)c(-c3ccc(Cl)cc3)c2c1 (single isomer, unassigned; (-)) [(−)-997-90] | I3 μM/Icontrol (mean ± SEM, %) GluN2C ([1]; listed as (−)-90): 7.0 ± 2.2%; IC50 [2, 9]: 0.21 µM; I3 μM/Icontrol (mean ± SEM, %) GluN2B ([3]; listed as (−)-90): 34 ± 5.0%; IC50 [5, 11]: 0.13 µM; I3 μM/Icontrol (mean ± SEM, %) GluN2D ([6]; 3 μM compound with 100 μM glutamate and 30 μM glycine, control set as 1): 3.4 ± 1.2%; I3 μM/Icontrol (mean ± SEM, %) GluN2A ([7]; listed as (−)-90): 33 ± 4.5%
0.48 | 30 | 0.35 | 16 | 86 | O=C(O)CCC(=O)N1N=C(c2c(-c3ccc(Cl)cc3)c3ccccc3[nH]c2=S)CC1c1ccc(Cl)cc1 (stereo not shown) [997-97, 4-(5-(4-chlorophenyl)-3-(4-(4-chlorophenyl)-2-thioxo-1,2-dihydroquinolin-3-yl)-4,5-dihydro-1H-pyrazol-1-yl)-4-oxobutanoic acid] | 2A IC50 / 2D IC50 [6]: 46
0.07 | 11 | – | 3 | 183 | O=C(O)/C=C(/F)C(=O)N1N=C(c2c(-c3ccc(Cl)cc3)c3ccccc3[nH]c2=O)CC1c1ccc(Cl)cc1 (stereo not shown) [997-101, (E)-4-(5-(4-chlorophenyl)-3-(4-(4-chlorophenyl)-2-oxo-1,2-dihydroquinolin-3-yl)-4,5-dihydro-1H-pyrazol-1-yl)-3-fluoro-4-oxobut-2-enoic acid] | IC50 [5, 13]: 0.06 µM; selectivity at GluN2D- over GluN2A-containing receptor [6]: 50 fold; 2A IC50 / 2D IC50 [6]: 50
1.6 | 30 | 0.81 | 20 | 37 | O=C(O)CC(F)(F)C(=O)N1N=C(c2c(-c3ccc(Cl)cc3)c3ccccc3[nH]c2=O)CC1c1ccc(F)cc1 (stereo not shown) [997-104, 4-(3-(4-(4-chlorophenyl)-2-oxo-1,2-dihydroquinolin-3-yl)-5-(4-fluorophenyl)-4,5-dihydro-1H-pyrazol-1-yl)-3,3-difluoro-4-oxobutanoic acid] | fold decrease of potency at GluN2D in comparison to 997-74 ([6]; comparator 997-74): 16 fold
0.35 | 20 | 0.2 | 13 | 100 | O=C(O)CCC(=O)N1N=C(c2c(-c3ccc(Cl)cc3)c3ccccc3[nH]c2=O)CC1c1ccc(C(F)(F)F)cc1 (stereo not shown) [997-112, 4-(3-(4-(4-chlorophenyl)-2-oxo-1,2-dihydroquinolin-3-yl)-5-(4-(trifluoromethyl)phenyl)-4,5-dihydro-1H-pyrazol-1-yl)-4-oxobutanoic acid] | –
0.338 | 8.15 | – | 5.67 | 48 | O=C(CC(F)(F)C(=O)O)N1N=C(c2c(-c3ccc(Cl)cc3)c3ccccc3[nH]c2=O)CC1c1ccc(Cl)cc1 (stereo not shown) [997-114, 4-(5-(4-chlorophenyl)-3-(4-(4-chlorophenyl)-2-oxo-1,2-dihydroquinolin-3-yl)-4,5-dihydro-1H-pyrazol-1-yl)-2,2-difluoro-4-oxobutanoic acid] | IC50 [5, 13]: 0.17 µM; 2A IC50 / 2D IC50 [6]: 33
